The values below are quoted from earlier work in patent US20230003743A1, “METHODS AND COMPOSITIONS FOR TREATING OR PREVENTING AN ALLERGY OR ANAPHYLAXIS” (THE CHILDREN'S MEDICAL CENTER CORPORATION, priority 2020, published 2023).

This series has as its system humanized mouse model of FA. As to conditions: SCID mice engrafted with human CD34+ hematopoietic stem cells, peanut-sensitized, enterally challenged with PN.

For Omalizumab, the “anaphylactic response (hypothermia, increases in plasma tryptase levels) upon enteral peanut challenge” value is “ablates this anaphylactic response”.
